The record followed here is US20220242844A1, “CANNABINOID DERIVATIVES” (CANOPY GROWTH CORPORATION, priority 2019, published 2022).

In general, IC50 refers to the point on the concentration scale where inhibition reaches its midpoint.

Read-outs that look alike come from different tables or passages of the source.

One experiment has as its target T1, human CB1 receptor (Homo sapiens, UniProt P21554).
T1 construct: host or cells: CHO-K1 (Chinese hamster ovary) cells, stably transfected; membranes prepared in house
Description: CB1 radioligand ([3H]CP 55,940) competitive binding assay. Conditions: for Selectivity CB1: fold difference in binding affinity, CB1 over CB2, 1.00 = about the same affinity for both receptors.

In a further experiment the target is T2, human CB2 receptor (Homo sapiens, UniProt P34972).
T2 construct: host or cells: CHO-K1 (Chinese hamster ovary) cells, stably transfected; membranes prepared in house
In words: CB2 radioligand ([3H]CP 55,940) competitive binding assay. Conditions: for Selectivity CB2: fold difference in binding affinity, CB2 over CB1, 1.00 = about the same affinity for both receptors.

The mark [1] stands for this setting: [3H]CP 55,940 displacement, membranes of CHO-K1 cells expressing human CB1 receptor, read-out: CB1 IC50.
Setting [2] is: [3H]CP 55,940 displacement, membranes of CHO-K1 cells expressing human CB2 receptor, read-out: CB2 IC50.

T1 sequence (P21554 whole entry): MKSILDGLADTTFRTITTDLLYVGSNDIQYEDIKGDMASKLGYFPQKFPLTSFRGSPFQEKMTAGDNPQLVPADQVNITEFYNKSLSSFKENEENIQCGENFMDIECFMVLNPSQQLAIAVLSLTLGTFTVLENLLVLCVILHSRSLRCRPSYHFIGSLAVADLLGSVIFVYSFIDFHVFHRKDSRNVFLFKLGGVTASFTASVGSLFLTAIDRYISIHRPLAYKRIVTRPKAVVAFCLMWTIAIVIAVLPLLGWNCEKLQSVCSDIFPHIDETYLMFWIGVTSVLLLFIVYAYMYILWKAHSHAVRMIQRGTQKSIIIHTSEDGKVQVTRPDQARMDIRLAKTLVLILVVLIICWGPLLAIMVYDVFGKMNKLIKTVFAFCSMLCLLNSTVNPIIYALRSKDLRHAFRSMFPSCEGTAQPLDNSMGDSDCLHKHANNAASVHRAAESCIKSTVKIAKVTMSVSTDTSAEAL
T2 sequence (P34972 whole entry): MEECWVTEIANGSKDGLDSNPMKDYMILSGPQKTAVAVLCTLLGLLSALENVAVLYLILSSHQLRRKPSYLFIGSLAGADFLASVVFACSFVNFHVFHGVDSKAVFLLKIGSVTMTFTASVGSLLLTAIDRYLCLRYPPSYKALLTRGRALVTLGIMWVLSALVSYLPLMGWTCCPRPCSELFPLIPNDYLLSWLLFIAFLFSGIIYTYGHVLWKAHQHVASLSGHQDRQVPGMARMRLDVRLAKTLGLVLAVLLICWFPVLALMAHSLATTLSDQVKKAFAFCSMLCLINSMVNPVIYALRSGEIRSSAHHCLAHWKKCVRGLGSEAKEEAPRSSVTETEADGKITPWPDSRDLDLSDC

At human CB1 receptor, `CCCCCc1cc(O)c(C2C=C(C)CCC2)c2c1C(=O)OC1(CCCC1)O2` (centres unmarked) [Compound 9c, 7-hydroxy-8-(3-methylcyclohex-2-en-1-yl)-5-pentyl-spiro[1,3-benzodioxine-2,1′-cyclopentane]-4-one] showed an IC50 of 10 to 19.9 µM. In addition, at human CB2 receptor, the 50% inhibitory concentration (IC50) was 1 to 9.9 µM and the “Selectivity CB2” value is listed as 3.32 fold.

As for `C=C(C)[C@@H]1CCC(C)=C[C@H]1c1c(O)cc(CCCCC)c2c1OC(C)(COC)OC2=O` (some centres unmarked) [Compound 11d, 7-hydroxy-2-(methoxymethyl)-2-methyl-8-(3-methyl-6-(prop-1-en-2-yl)cyclohex-2-en-1-yl)-5-pentyl-4H-benzo[d][1,3]dioxin-4-one], the values for the concentration for half-maximal inhibition (IC50) on human CB1 receptor and at human CB2 receptor were > 20 µM and 10 to 19.9 µM, respectively. For the same molecule, the “Selectivity CB2” value at human CB2 receptor is 1.89 fold.

Consider `C=C(C)[C@@H]1CCC(C)=C[C@H]1c1c(O)cc(CCC)c2c1OCOC2=O` [Compound 23d, 7-hydroxy-8-(3-methyl-6-(prop-1-en-2-yl)cyclohex-2-en-1-yl)-5-propyl-4H-benzo[d][1,3]dioxin-4-one], for which the IC50 at human CB1 receptor (setting [1]) and on human CB2 receptor (setting [2]) was 1 to 9.9 µM each time. Besides, the “Selectivity CB1” value on human CB1 receptor is on record as 1.00 fold. Besides, the “Selectivity CB2” value on human CB2 receptor amounted to 1.00 fold.

Regarding `CCCCCc1cc(O)c(C2C=C(C)CCC2)c2c1C(=O)OC(CC(C)=O)(c1ccccc1)O2` (centres unmarked) [Compound 12c, 7-hydroxy-8-(3-methylcyclohex-2-en-1-yl)-2-(2-oxopropyl)-5-pentyl-2-phenyl-4H-benzo[d][1,3]dioxin-4-one], the IC50 at human CB1 receptor lay in the range of 1 to 9.9 µM. For the same molecule, at human CB2 receptor, the IC50 fell in the range of 1 to 9.9 µM and the “Selectivity CB2” value is recorded as 1.37 fold.

In the case of `CCCCCc1cc(O)c(C2C=C(C)CCC2)c2c1C(=O)OC(CC(C)=O)O2` (centres unmarked) [Compound 14c, 7-hydroxy-8-(3-methylcyclohex-2-en-1-yl)-2-(2-oxopropyl)-5-pentyl-4H-benzo[d][1,3]dioxin-4-one], the concentration for half-maximal inhibition (IC50) on human CB1 receptor (setting [1]) and at human CB2 receptor (setting [2]) was 1 to 9.9 µM throughout. Moreover, the “Selectivity CB2” value on human CB2 receptor stood at 2.06 fold.

In the case of `C=C(C)[C@@H]1CCC(C)=C[C@H]1c1c(O)cc(CCCCC)c2c1OC(C)(C)OC2=O` [Compound 2d, 7-hydroxy-2,2-dimethyl-8-(3-methyl-6-(prop-1-en-2-yl)cyclohex-2-en-1-yl)-5-pentyl-4H-benzo[d][1,3]dioxin-4-one], the IC50 at human CB1 receptor (setting [1]) is > 20 µM; on human CB2 receptor (setting [2]), 10 to 19.9 µM. For the same molecule, the “Selectivity CB2” value at human CB2 receptor amounted to 2.00 fold.

`CCCCCc1cc(O)c(-c2cccc(C)c2)c2c1C(=O)OC(C)(C)O2` [Compound 2a, 7-hydroxy-2,2-dimethyl-8-(m-tolyl)-5-pentyl-1,3-benzodioxin-4-one]: the figures for the IC50 on human CB1 receptor (setting [1]) and on human CB2 receptor (setting [2]) were 10 to 19.9 µM and 1 to 9.9 µM, respectively. The “Selectivity CB2” value at human CB2 receptor amounted to 3.08 fold.

As to `C=C(C)[C@@H]1CCC(C)=C[C@H]1c1c(O)cc(CCCCC)c2c1OC(CC)OC2=O` (some centres unmarked) [Compound 17d, 2-ethyl-7-hydroxy-8-(3-methyl-6-(prop-1-en-2-yl)cyclohex-2-en-1-yl)-5-pentyl-4H-benzo[d][1,3]dioxin-4-one], the IC50 is 1 to 9.9 µM at human CB1 receptor (setting [1]) and < 1 µM on human CB2 receptor (setting [2]). For the same molecule, the “Selectivity CB2” value at human CB2 receptor was 4.35 fold.

As to `CCCCCc1cc(O)c(C2C=C(C)CCC2)c2c1C(=O)OCO2` (centres unmarked) [Compound 1c, 7-hydroxy-8-(3-methylcyclohex-2-en-1-yl)-5-pentyl-4H-benzo[d][1,3]dioxin-4-one], the IC50 on human CB2 receptor (setting [2]) was 1 to 9.9 µM.

The molecule `C=C(C)[C@@H]1CCC(C)=C[C@H]1c1c(O)cc(CCCCC)c2c1OC(C)OC2=O` (some centres unmarked) [Compound 16d, 7-hydroxy-2-methyl-8-(3-methyl-6-(prop-1-en-2-yl)cyclohex-2-en-1-yl)-5-pentyl-4H-benzo[d][1,3]dioxin-4-one] yielded a 50% inhibitory concentration (IC50) on human CB1 receptor of 1 to 9.9 µM. For the same molecule, on human CB2 receptor, the IC50 is 1 to 9.9 µM and the “Selectivity CB2” value is 2.44 fold.

In the case of `C=C(C)[C@@H]1CCC(C)=C[C@H]1c1c(O)cc(CCCCC)c2c1OC(CC(C)=O)(c1ccccc1)OC2=O` (some centres unmarked) [Compound 12d, 7-hydroxy-8-(3-methyl-6-(prop-1-en-2-yl)cyclohex-2-en-1-yl)-2-(2-oxopropyl)-5-pentyl-2-phenyl-4H-benzo[d][1,3]dioxin-4-one], at human CB1 receptor, the half-maximal inhibitory concentration (IC50) was 1 to 9.9 µM and the “Selectivity CB1” value is recorded as 1.00 fold. Further, on human CB2 receptor, the IC50 fell in the range of 1 to 9.9 µM and the “Selectivity CB2” value is listed as 1.00 fold.

Take `CCCCCc1cc(O)c(C2C=C(C)CCC2)c2c1C(=O)OC(C)(C)O2` (centres unmarked) [Compound 2c, 7-hydroxy-2,2-dimethyl-8-(3-methylcyclohex-2-en-1-yl)-5-pentyl-4H-benzo[d][1,3]dioxin-4-one]: the half-inhibitory concentration (IC50) at human CB1 receptor was in the range of 1 to 9.9 µM; on human CB2 receptor, 10 to 19.9 µM. Further, the “Selectivity CB1” value on human CB1 receptor is on record as 2.76 fold.

For the molecule `C=C(C)C1CCC(C)=CC1c1c(O)cc(CCCCC)c2c1OC(c1ccccc1)OC2=O` (centres unmarked) [Compound 3d, 7-hydroxy-8-(3-methyl-6-(prop-1-en-2-yl)cyclohex-2-en-1-yl)-5-pentyl-2-phenyl-4H-benzo[d][1,3]dioxin-4-one], the 50% inhibitory concentration (IC50) was < 1 µM on human CB1 receptor (setting [1]) and 1 to 9.9 µM on human CB2 receptor (setting [2]). On human CB1 receptor, the “Selectivity CB1” value stood at 2.53 fold.

As to `CCCCCc1cc(O)c(-c2cccc(C)c2)c2c1C(=O)OC(CC(C)=O)(c1ccccc1)O2` (centres unmarked) [Compound 12a, 2-acetonyl-7-hydroxy-8-(m-tolyl)-5-pentyl-2-phenyl-1,3-benzodioxin-4-one], the 50% inhibitory concentration (IC50) on human CB1 receptor was > 20 µM. Besides, at human CB2 receptor, the IC50 fell in the range of 10 to 19.9 µM and the “Selectivity CB2” value worked out at 1.53 fold.

Take `C=C(C)[C@@H]1CCC(C)=C[C@H]1c1c(O)cc(CCCCC)c2c1OC(CC(C)=O)OC2=O` (some centres unmarked) [Compound 14d, 7-hydroxy-8-(3-methyl-6-(prop-1-en-2-yl)cyclohex-2-en-1-yl)-2-(2-oxopropyl)-5-pentyl-4H-benzo[d][1,3]dioxin-4-one]: the results for the IC50 at human CB1 receptor (setting [1]) and on human CB2 receptor (setting [2]) were 10 to 19.9 µM and 1 to 9.9 µM, respectively. Further, the “Selectivity CB2” value at human CB2 receptor is listed as 4.92 fold.

Take `C=C(C)[C@@H]1CCC(C)=C[C@H]1c1c(O)cc(CCCCC)c2c1OCOC2=O` [Compound 1d, 7-hydroxy-8-(3-methyl-6-(prop-1-en-2-yl)cyclohex-2-en-1-yl)-5-pentyl-4H-benzo[d][1,3]dioxin-4-one]: the IC50 on human CB1 receptor (setting [1]) and at human CB2 receptor (setting [2]) was 1 to 9.9 µM each time. Also, the “Selectivity CB1” value at human CB1 receptor came out at 1.00 fold. In addition, the “Selectivity CB2” value at human CB2 receptor stood at 1.00 fold.

As to `C=C(C)C1CCC(C)=CC1c1c(O)cc(CCCCC)c2c1OC(C)(CC(C)=O)OC2=O` (centres unmarked) [Compound 7d, 7-hydroxy-2-methyl-8-(3-methyl-6-(prop-1-en-2-yl)cyclohex-2-en-1-yl)-2-(2-oxopropyl)-5-pentyl-4H-benzo[d][1,3]dioxin-4-one], the half-inhibitory concentration (IC50) on human CB1 receptor was > 20 µM. Also, on human CB2 receptor, the concentration for half-maximal inhibition (IC50) was 1 to 9.9 µM and the “Selectivity CB2” value was 13.33 fold.

As to `C=C(C)[C@@H]1CCC(C)=C[C@H]1c1c(O)cc(CCC)c2c1OC(CC(C)=O)(c1ccccc1)OC2=O` (some centres unmarked) [Compound 24d, 7-hydroxy-8-(3-methyl-6-(prop-1-en-2-yl)cyclohex-2-en-1-yl)-2-(2-oxopropyl)-2-phenyl-5-propyl-4H-benzo[d][1,3]dioxin-4-one], at human CB1 receptor, the half-inhibitory concentration (IC50) is 1 to 9.9 µM and the “Selectivity CB1” value is reported as 1.00 fold. On human CB2 receptor, the IC50 lay in the range of 1 to 9.9 µM and the “Selectivity CB2” value is given as 1.00 fold.
